Measured values taken from ChEMBL document CHEMBL4257503, “N-Acetyl-3-aminopyrazoles block the non-canonical NF-kB cascade by selectively inhibiting NIK” (Medchemcomm, 2018).

What was measured:
[1] = molecular target: Death-associated protein kinase 1 (Homo sapiens, UniProt P53355); experiment: Inhibition of DAPK1 (unknown origin)
[2] = molecular target: Epidermal growth factor receptor (Homo sapiens, UniProt P00533); experiment: Inhibition of wild-type EGFR (unknown origin)
[3] = molecular target: Casein kinase II subunit alpha (Homo sapiens, UniProt P68400); experiment: Inhibition of CK2-alpha1 (unknown origin)
[4] = molecular target: Proto-oncogene tyrosine-protein kinase Src (Homo sapiens, UniProt P12931); experiment: Inhibition of GST/His-tagged SRC (unknown origin)
[5] = molecular target: Serine/threonine-protein kinase Chk2 (Homo sapiens, UniProt O96017); experiment: Inhibition of CHK2 (unknown origin)
[6] = molecular target: Cyclin-Y/Cyclin-dependent kinase 16 (Homo sapiens, UniProt Q00536); experiment: Inhibition of PCTAIRE1/cyclinY (unknown origin); assay type: protein-complex assay
[7] = molecular target: Mitogen-activated protein kinase kinase kinase kinase 2 (Homo sapiens, UniProt Q12851); experiment: Inhibition of MAP4K2 (unknown origin)
Insulin receptor = Insulin receptor (Homo sapiens, UniProt P06213); experiment: Inhibition of INSR (unknown origin)
Chain of Insulin receptor (P06213 28-758 limits assumed): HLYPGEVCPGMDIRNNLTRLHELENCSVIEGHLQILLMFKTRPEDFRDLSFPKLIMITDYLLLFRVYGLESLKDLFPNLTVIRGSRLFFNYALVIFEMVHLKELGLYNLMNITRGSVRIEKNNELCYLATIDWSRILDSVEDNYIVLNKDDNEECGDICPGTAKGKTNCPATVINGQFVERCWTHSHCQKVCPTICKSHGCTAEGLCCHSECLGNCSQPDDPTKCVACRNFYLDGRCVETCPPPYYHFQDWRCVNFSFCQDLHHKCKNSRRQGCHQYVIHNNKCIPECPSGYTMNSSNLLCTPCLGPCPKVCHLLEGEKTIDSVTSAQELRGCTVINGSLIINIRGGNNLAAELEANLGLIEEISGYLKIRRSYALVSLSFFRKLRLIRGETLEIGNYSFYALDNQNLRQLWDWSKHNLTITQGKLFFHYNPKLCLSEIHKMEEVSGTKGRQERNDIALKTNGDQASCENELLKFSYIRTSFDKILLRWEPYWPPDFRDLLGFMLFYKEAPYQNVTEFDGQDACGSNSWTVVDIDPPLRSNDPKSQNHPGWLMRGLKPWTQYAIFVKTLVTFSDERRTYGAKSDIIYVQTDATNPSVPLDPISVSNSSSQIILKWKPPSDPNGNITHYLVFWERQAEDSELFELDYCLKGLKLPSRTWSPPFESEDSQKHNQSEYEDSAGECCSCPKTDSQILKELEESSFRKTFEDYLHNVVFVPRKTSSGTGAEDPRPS
Chain of Insulin receptor (P06213 763-1382 limits assumed): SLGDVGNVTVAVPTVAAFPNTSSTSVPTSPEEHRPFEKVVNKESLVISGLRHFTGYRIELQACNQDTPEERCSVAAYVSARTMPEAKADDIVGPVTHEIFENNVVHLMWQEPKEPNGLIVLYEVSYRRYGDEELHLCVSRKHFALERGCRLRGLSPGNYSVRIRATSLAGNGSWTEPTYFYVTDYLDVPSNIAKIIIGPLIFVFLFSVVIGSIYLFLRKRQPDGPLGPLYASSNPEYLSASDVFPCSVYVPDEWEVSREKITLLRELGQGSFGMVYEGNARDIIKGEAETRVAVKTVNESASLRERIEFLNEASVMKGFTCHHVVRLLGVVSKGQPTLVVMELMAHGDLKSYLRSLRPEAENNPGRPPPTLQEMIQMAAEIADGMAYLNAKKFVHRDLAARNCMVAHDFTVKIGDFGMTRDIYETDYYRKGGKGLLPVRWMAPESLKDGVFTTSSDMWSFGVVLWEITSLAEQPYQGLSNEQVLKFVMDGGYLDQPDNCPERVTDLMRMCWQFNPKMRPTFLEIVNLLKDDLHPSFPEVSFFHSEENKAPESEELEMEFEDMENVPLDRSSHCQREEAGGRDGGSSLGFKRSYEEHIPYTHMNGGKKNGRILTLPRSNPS

Chain of Serine/threonine-protein kinase Chk2 (O96017 whole entry): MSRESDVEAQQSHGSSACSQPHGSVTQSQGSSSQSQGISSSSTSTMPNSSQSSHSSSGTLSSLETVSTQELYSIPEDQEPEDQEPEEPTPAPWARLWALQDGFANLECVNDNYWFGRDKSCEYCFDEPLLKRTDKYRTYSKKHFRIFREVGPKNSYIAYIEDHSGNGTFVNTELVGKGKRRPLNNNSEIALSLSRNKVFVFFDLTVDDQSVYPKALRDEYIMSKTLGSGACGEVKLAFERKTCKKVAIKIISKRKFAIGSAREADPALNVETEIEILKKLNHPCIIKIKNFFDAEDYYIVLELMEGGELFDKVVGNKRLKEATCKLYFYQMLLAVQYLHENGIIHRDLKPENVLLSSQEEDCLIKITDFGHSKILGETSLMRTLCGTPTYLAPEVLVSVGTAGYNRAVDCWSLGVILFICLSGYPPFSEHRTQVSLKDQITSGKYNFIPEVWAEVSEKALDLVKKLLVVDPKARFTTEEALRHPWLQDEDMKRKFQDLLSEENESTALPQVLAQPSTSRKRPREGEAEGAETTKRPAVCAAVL
Chain of Epidermal growth factor receptor (P00533 whole entry): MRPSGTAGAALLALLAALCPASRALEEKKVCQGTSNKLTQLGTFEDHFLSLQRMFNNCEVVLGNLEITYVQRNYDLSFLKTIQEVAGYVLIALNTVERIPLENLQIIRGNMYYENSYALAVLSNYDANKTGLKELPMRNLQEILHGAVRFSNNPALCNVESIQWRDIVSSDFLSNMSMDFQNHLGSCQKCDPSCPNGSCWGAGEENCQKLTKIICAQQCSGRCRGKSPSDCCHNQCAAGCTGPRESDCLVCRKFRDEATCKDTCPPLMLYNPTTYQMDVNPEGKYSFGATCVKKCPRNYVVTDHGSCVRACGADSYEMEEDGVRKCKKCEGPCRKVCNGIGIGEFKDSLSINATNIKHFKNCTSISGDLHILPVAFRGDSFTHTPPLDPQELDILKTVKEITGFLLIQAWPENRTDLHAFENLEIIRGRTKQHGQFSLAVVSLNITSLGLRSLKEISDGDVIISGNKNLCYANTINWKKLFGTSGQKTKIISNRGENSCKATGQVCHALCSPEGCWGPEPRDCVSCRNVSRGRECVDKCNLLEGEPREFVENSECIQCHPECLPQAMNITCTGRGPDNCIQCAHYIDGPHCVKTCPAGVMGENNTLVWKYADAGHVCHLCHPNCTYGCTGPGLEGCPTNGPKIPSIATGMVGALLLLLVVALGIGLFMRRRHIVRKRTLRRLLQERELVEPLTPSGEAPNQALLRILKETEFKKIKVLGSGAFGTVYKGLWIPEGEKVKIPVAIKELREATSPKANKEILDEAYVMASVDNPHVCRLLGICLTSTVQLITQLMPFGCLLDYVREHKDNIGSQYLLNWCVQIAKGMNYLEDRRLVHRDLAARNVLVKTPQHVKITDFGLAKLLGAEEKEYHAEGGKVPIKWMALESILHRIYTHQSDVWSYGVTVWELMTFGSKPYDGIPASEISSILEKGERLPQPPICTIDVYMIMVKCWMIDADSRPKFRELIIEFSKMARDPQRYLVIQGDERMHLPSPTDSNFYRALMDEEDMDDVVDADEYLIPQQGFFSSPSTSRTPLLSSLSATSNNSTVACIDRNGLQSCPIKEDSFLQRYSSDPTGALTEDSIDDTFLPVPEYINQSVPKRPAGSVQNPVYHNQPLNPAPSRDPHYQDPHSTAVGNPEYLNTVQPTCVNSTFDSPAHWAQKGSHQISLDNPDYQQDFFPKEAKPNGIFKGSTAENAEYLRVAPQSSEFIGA
Chain of Casein kinase II subunit alpha (P68400 whole entry): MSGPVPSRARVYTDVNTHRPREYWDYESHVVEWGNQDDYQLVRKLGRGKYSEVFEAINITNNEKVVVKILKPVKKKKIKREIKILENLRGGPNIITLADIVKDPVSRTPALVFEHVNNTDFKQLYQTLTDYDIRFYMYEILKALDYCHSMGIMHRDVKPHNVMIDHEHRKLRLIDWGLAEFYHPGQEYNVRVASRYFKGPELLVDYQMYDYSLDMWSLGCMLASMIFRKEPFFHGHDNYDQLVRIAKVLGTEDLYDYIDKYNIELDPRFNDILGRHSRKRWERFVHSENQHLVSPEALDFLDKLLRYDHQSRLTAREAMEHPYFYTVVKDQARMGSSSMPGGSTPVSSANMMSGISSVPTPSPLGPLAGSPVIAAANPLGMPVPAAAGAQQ
Chain of Proto-oncogene tyrosine-protein kinase Src (P12931 2-536 limits assumed): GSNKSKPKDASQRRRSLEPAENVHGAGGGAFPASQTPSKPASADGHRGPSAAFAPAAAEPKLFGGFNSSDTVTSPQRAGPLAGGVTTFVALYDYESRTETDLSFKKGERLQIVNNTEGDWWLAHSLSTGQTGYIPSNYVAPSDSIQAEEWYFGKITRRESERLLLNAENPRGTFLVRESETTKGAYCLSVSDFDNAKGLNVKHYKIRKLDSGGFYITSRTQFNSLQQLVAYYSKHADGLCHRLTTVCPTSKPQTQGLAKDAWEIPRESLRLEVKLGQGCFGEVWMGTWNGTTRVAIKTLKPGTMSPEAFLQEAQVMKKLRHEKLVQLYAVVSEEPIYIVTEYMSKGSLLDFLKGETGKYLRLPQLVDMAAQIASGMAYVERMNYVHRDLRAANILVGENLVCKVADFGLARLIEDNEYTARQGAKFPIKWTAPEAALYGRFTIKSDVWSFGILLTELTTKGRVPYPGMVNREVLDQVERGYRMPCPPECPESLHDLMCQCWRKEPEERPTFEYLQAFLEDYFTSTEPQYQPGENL
Chain of Mitogen-activated protein kinase kinase kinase kinase 2 (Q12851 whole entry): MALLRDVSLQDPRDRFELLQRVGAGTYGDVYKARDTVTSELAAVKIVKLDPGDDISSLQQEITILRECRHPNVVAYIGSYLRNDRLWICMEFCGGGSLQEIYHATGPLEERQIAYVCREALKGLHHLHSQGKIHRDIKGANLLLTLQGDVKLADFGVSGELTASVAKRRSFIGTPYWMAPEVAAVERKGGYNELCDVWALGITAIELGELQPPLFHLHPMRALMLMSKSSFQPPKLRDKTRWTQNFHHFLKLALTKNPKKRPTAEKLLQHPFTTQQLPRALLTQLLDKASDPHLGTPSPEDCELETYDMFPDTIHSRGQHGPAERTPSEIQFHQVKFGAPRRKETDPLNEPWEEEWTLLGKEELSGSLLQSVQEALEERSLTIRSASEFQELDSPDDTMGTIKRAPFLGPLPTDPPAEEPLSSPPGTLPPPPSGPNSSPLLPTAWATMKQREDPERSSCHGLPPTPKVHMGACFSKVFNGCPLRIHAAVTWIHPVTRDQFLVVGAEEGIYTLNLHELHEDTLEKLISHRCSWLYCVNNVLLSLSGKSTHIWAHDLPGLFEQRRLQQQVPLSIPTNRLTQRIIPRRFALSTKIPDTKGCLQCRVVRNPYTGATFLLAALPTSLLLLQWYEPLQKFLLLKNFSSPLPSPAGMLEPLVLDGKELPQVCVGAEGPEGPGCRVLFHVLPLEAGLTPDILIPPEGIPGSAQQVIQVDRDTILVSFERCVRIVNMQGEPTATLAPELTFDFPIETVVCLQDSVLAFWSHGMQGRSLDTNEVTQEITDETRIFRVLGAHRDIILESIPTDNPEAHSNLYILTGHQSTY

IC50 [2]: > 100 µM
IC50 [3]: > 100 µM
IC50 [4]: > 100 µM
IC50 [5]: > 100 µM
IC50 [6]: > 100 µM
IC50 [7]: > 100 µM
IC50 (Insulin receptor): > 100 µM
Compound: CC(=O)n1nc(C)c(-c2ccc(Cl)c(Cl)c2)c1N
IC50 [1]: > 100 µM
